Values joined by “and” are separate entries in the source; they are usually repeats but may differ in a detail not shown here. Identical values can stand only once. Inconclusive results and toxic doses are left out. Rule as the data show it: active = T/C of 150% or more; inactive = T/C below 125%.
Test system: L1210 leukemia ip in BDF1 mice, survival T/C
Assay: NCI In Vivo Anticancer Drug Screen. Data for tumor model L1210 Leukemia (intraperitoneal) in B6D2F1 (BDF1) mice
Conditions: endpoint: mean survival time, higher = longer survival
Summary of the method: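 Tumor was transplanted into mice, which were then dosed with test compound or vehicle alone. Survival was recorded for each group, and the treated figure was expressed relative to the control figure.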

[1] = dose: 100.0 mg/kg/injection, schedule: Q04DX003 (ip), vehicle: saline
[2] = dose: 200.0 mg/kg/injection, schedule: Q04DX003 (ip), vehicle: saline
[3] = dose: 100.0 mg/kg/injection, schedule: Q04DX003 (ip), vehicle: saline with Tween-80
[4] = dose: 200.0 mg/kg/injection, schedule: Q04DX003 (ip), vehicle: saline with Tween-80
[5] = dose: 400.0 mg/kg/injection, schedule: Q04DX003 (ip), vehicle: saline with Tween-80
[6] = dose: 2.5 mg/kg/injection, schedule: Q01DX009 (ip), vehicle: saline
[7] = dose: 5.0 mg/kg/injection, schedule: Q01DX009 (ip), vehicle: saline
[8] = dose: 10.0 mg/kg/injection, schedule: Q01DX001 (ip), vehicle: saline
[9] = dose: 10.0 mg/kg/injection, schedule: Q04DX003 (ip), vehicle: saline
[10] = dose: 20.0 mg/kg/injection, schedule: Q01DX001 (ip), vehicle: saline
[11] = dose: 40.0 mg/kg/injection, schedule: Q01DX001 (ip), vehicle: saline
[12] = dose: 100.0 mg/kg/injection, schedule: Q01DX009 (ip), vehicle: Klucel (hydroxypropylcellulose) (HPC)
[13] = dose: 100.0 mg/kg/injection, schedule: Q04DX003 (ip), vehicle: Klucel (hydroxypropylcellulose) (HPC)
[14] = dose: 200.0 mg/kg/injection, schedule: Q01DX009 (ip), vehicle: Klucel (hydroxypropylcellulose) (HPC)
[15] = dose: 200.0 mg/kg/injection, schedule: Q04DX003 (ip), vehicle: Klucel (hydroxypropylcellulose) (HPC)
[16] = dose: 400.0 mg/kg/injection, schedule: Q04DX003 (ip), vehicle: Klucel (hydroxypropylcellulose) (HPC)
[17] = dose: 100.0 mg/kg/injection, schedule: Q01DX001 (ip), vehicle: saline
[18] = dose: 200.0 mg/kg/injection, schedule: Q01DX001 (ip), vehicle: saline
[19] = dose: 100.0 mg/kg/injection, schedule: Q04DX002 (ip), vehicle: saline
[20] = dose: 400.0 mg/kg/injection, schedule: Q04DX002 (ip), vehicle: saline
[21] = dose: 100.0 mg/kg/injection, schedule: Q01DX001 (ip), vehicle: carboxymethylcellulose (CMC)
[22] = dose: 200.0 mg/kg/injection, schedule: Q01DX001 (ip), vehicle: carboxymethylcellulose (CMC)
[23] = dose: 400.0 mg/kg/injection, schedule: Q01DX001 (ip), vehicle: carboxymethylcellulose (CMC)

Measured: T/C

CC(=O)CCC(=O)OCCOC(=O)CCC(C)=O
inactive: dose: 100.0 mg/kg/injection, schedule: Q01DX009 (ip), vehicle: saline 98 % of control and 105 % of control | [1] 96 % of control and 104 % of control | dose: 200.0 mg/kg/injection, schedule: Q01DX009 (ip), vehicle: saline 93 % of control and 95 % of control | [2] 100 % of control | dose: 400.0 mg/kg/injection, schedule: Q01DX009 (ip), vehicle: saline 98 % of control and 104 % of control | dose: 400.0 mg/kg/injection, schedule: Q04DX003 (ip), vehicle: saline 100 % of control and 106 % of control

COc1cc(C(=O)NOCc2cccc(C(F)(F)F)c2)cc(OC)c1OC
inactive: [3] 98 % of control | [4] 98 % of control | [5] 101 % of control

CC(=O)SCCNCCNC1CC2CCC1C2 (configuration not stated)
inactive: dose: 1.25 mg/kg/injection, schedule: Q01DX009 (ip), vehicle: saline 94 % of control | [6] 97 % of control | [7] 100 % of control | dose: 7.2 mg/kg/injection, schedule: Q01DX009 (ip), vehicle: saline 94 % of control | [8] 92 % of control | [9] 99 % of control | dose: 11.0 mg/kg/injection, schedule: Q01DX009 (ip), vehicle: saline 92 % of control | dose: 16.5 mg/kg/injection, schedule: Q01DX009 (ip), vehicle: saline 90 % of control | [10] 90 % of control | dose: 23.0 mg/kg/injection, schedule: Q01DX009 (ip), vehicle: saline 88 % of control | [11] 95 % of control

COc1cc(OC)c(Oc2cc(OC)c(OC)c(OC)c2)c(OC)c1
inactive: [3] 97 % of control | [4] 103 % of control | [5] 101 % of control

Cn1c(=O)c2ccc[n+]([O-])c2n(C)c1=O
inactive: [12] 101 % of control | [13] 103 % of control | [14] 108 % of control | [15] 96 % of control | dose: 400.0 mg/kg/injection, schedule: Q01DX009 (ip), vehicle: Klucel (hydroxypropylcellulose) (HPC) 105 % of control | [16] 107 % of control

NC(=O)NCCO
inactive: [17] 98 % of control | [18] 106 % of control | dose: 400.0 mg/kg/injection, schedule: Q01DX001 (ip), vehicle: saline 98 % of control

CCCCP(=S)(CCCC)N(CC)CC
inactive: [13] 101 % of control | [15] 104 % of control | [16] 93 % of control

Cln1nnc2ccccc21
inactive: dose: 100.0 mg/kg/injection, schedule: Q04DX002 (ip), vehicle: other 91 % of control | dose: 200.0 mg/kg/injection, schedule: Q04DX002 (ip), vehicle: other 106 % of control

CS(=O)(=O)N(CC(=O)O)Cc1ccc(Cl)c(Cl)c1
inactive: dose: 100.0 mg/kg/injection, schedule: Q01DX009 (ip), vehicle: other 100 % of control | dose: 100.0 mg/kg/injection, schedule: Q04DX003 (ip), vehicle: other 97 % of control | dose: 200.0 mg/kg/injection, schedule: Q01DX009 (ip), vehicle: other 104 % of control | dose: 200.0 mg/kg/injection, schedule: Q04DX003 (ip), vehicle: other 97 % of control | dose: 400.0 mg/kg/injection, schedule: Q01DX009 (ip), vehicle: other 96 % of control | dose: 400.0 mg/kg/injection, schedule: Q04DX003 (ip), vehicle: other 95 % of control

CCCCCCCCCCCCCCC[n+]1ccc(C#N)cc1
inactive: dose: 5.0 mg/kg/injection, schedule: Q01DX009 (ip), vehicle: acetone 101 % of control | [8] 93 % of control | dose: 10.0 mg/kg/injection, schedule: Q01DX009 (ip), vehicle: acetone 100 % of control | [9] 101 % of control | [10] 93 % of control | dose: 20.0 mg/kg/injection, schedule: Q04DX003 (ip), vehicle: saline 94 % of control | [11] 98 % of control | dose: 40.0 mg/kg/injection, schedule: Q04DX003 (ip), vehicle: saline 92 % of control

CNCCOCc1ccccc1
inactive: [17] 96 % of control | [18] 91 % of control

COC(=O)C(C)CSCc1ccccc1 (configuration not stated)
inactive: [19] 108 % of control | [20] 89 % of control

[Cl][Pt+2][Cl].[NH-]c1ccc([N+](=O)[O-])cc1.[NH-]c1ccc([N+](=O)[O-])cc1
inactive: [1] 102 % of control | [2] 113 % of control

O=[N+]([O-])c1cc2c(cc1Br)nc(Cl)c1cc(Br)ccc12
inactive: [12] 89 % of control | [13] 104 % of control | [14] 91 % of control | [15] 100 % of control | [16] 96 % of control

C#CC(NC(C)(C)CC(C)(C)C)C(C)C (configuration not stated)
inactive: [19] 109 % of control | dose: 200.0 mg/kg/injection, schedule: Q04DX002 (ip), vehicle: saline 109 % of control | [20] 100 % of control

CC(=O)N(C)c1ccc(NC(=O)Nc2cccc(F)c2)cc1
inactive: dose: 12.5 mg/kg/injection, schedule: Q01DX009 (ip), vehicle: saline with Tween-80 104 % of control | dose: 25.0 mg/kg/injection, schedule: Q01DX009 (ip), vehicle: saline with Tween-80 105 % of control | dose: 50.0 mg/kg/injection, schedule: Q01DX009 (ip), vehicle: saline with Tween-80 96 % of control

Cc1csc(NC(=O)C2C3CCC(O3)C2C(=O)O)n1 (configuration not stated)
inactive: dose: 5.0 mg/kg/injection, schedule: Q01DX001 (ip), vehicle: carboxymethylcellulose (CMC) 95 % of control | dose: 10.0 mg/kg/injection, schedule: Q01DX001 (ip), vehicle: carboxymethylcellulose (CMC) 101 % of control

CC(=O)[O][Hg][c]1c(N)c(C)cc(C)c1F
inactive: [6] 91 % of control | [7] 95 % of control | dose: 6.25 mg/kg/injection, schedule: Q04DX003 (ip), vehicle: saline 101 % of control | dose: 10.0 mg/kg/injection, schedule: Q01DX009 (ip), vehicle: saline 98 % of control | dose: 12.5 mg/kg/injection, schedule: Q04DX003 (ip), vehicle: saline 91 % of control | dose: 25.0 mg/kg/injection, schedule: Q04DX003 (ip), vehicle: saline 94 % of control and 100 % of control | [1] 95 % of control

CCCN1CC2=C1C(=O)c1ccccc1C2=O
inactive: dose: 100.0 mg/kg/injection, schedule: Q01DX001 (ip), vehicle: other 97 % of control | dose: 200.0 mg/kg/injection, schedule: Q01DX001 (ip), vehicle: other 93 % of control | dose: 400.0 mg/kg/injection, schedule: Q01DX001 (ip), vehicle: other 87 % of control

COc1ccc(C(=O)CC(C(=O)O)c2ccc3c(c2)OCO3)cc1OC (configuration not stated)
inactive: dose: 100.0 mg/kg/injection, schedule: Q01DX009 (ip), vehicle: saline with Tween-80 96 % of control | dose: 200.0 mg/kg/injection, schedule: Q01DX009 (ip), vehicle: saline with Tween-80 98 % of control | dose: 400.0 mg/kg/injection, schedule: Q01DX009 (ip), vehicle: saline with Tween-80 98 % of control

CCCCN(CC)C(=S)S[Te](SC(=S)N(CC)CCCC)(SC(=S)N(CC)CCCC)SC(=S)N(CC)CCCC
inactive: [21] 104 % of control | [22] 101 % of control | [23] 89 % of control

CCOC(=O)CC(O)(c1ccc(OC)cc1)c1ccc(OC)cc1
inactive: [21] 92 % of control | [22] 97 % of control | [23] 95 % of control

ClC(Cl)(Cl)c1ccc(C(SCc2ccccc2)SCc2ccccc2)cc1
inactive: [3] 86 % of control | [4] 89 % of control | [5] 86 % of control

From PubChem BioAssay AID248 (DTP/NCI, 2004)
